Measured values reported in the CombiSolv-Exp solvation set (Vermeire and Green 2021).

Assay: solvent given as SMILES

With `CCC(C)C(=O)OC1CC(C)C=C2C=CC(C)C(CCC3CC(O)CC(=O)O3)C21` (centres undefined) as the compound, how does the “solvation free energy, 298 K” value (in CC(=O)OC(C)C) read?
Its value is -24.9 kcal/mol.

What about the “solvation free energy, 298 K” value (in CC(=O)OCC(C)C) of the same compound?
The value was -24.8 kcal/mol.

And the “solvation free energy, 298 K” value (in CC(C)=O)?
Its value is -25.7 kcal/mol.

And the “solvation free energy, 298 K” value (in CCC(C)=O)?
Its value is -25.6 kcal/mol.

What about the “solvation free energy, 298 K” value (in CCC(C)OC(C)=O) of the same compound?
The value was -24.9 kcal/mol.

What about the “solvation free energy, 298 K” value (in CCCCCCCCO) of the same compound?
The value was -24.6 kcal/mol.

And the “solvation free energy, 298 K” value (in CCCCCCO)?
Its value is -24.8 kcal/mol.

What about the “solvation free energy, 298 K” value (in CCCCCO) of the same compound?
The value was -24.9 kcal/mol.

And the “solvation free energy, 298 K” value (in CCCCO)?
The value was -25.2 kcal/mol.

What about the “solvation free energy, 298 K” value (in CCCCOC(C)=O) of the same compound?
The value was -24.9 kcal/mol.

What about the “solvation free energy, 298 K” value (in CCCO) of the same compound?
The value was -25.2 kcal/mol.

What about the “solvation free energy, 298 K” value (in CCCOC(C)=O) of the same compound?
The value was -25.1 kcal/mol.

And the “solvation free energy, 298 K” value (in CCO)?
Its value is -25.1 kcal/mol.

What about the “solvation free energy, 298 K” value (in CCOC(C)=O) of the same compound?
Its value is -25.1 kcal/mol.

And the “solvation free energy, 298 K” value (in CO)?
Its value is -25.2 kcal/mol.

And the “solvation free energy, 298 K” value (in COC(C)=O)?
Its value is -25.1 kcal/mol.

With `Oc1cccc2ccccc12` as the compound, how does the “solvation free energy, 298 K” value (in CC(C)CC(C)(C)C) read?
Its value is -8.54 kcal/mol.

What about the “solvation free energy, 298 K” value (in CCCCCC) of the same compound?
Its value is -8.71 kcal/mol.

What about the “solvation free energy, 298 K” value (in CCCCCCC) of the same compound?
Its value is -8.75 kcal/mol.

What about the “solvation free energy, 298 K” value (in CCCCCCCC) of the same compound?
The value was -8.73 kcal/mol.

And the “solvation free energy, 298 K” value (in CCCCCCCCCC)?
The value was -8.76 kcal/mol.

What about the “solvation free energy, 298 K” value (in O) of the same compound?
The value was -7.93 kcal/mol.

Which “solvation free energy, 298 K” value (in O) does the source give for `CCOCCOCC` here?
Its value is -3.54 kcal/mol.

With `CC1=CCC23C(C)CCC(C(C)C)C2C13` (centres undefined) as the compound, how does the “solvation free energy, 298 K” value (in O) read?
The value was 0.56 kcal/mol.

For `Clc1cc(Cl)c(-c2cc(Cl)c(Cl)c(Cl)c2Cl)cc1Cl`, which “solvation free energy, 298 K” value (in CCCCCCCCO) is on record?
The value was -13.9 kcal/mol.

What about the “solvation free energy, 298 K” value (in O) of the same compound?
Its value is -3.53 kcal/mol.

What does the source list for `c1ccc2c(c1)OCCOCCOc1ccccc1OCCOCCO2`?
solvation free energy, 298 K (in Cc1cccc(C)c1): -21.7 kcal/mol; solvation free energy, 298 K (in O): -18.2 kcal/mol

With `C=COC(C)=O` as the compound, how does the “solvation free energy, 298 K” value (in CC(C)=O) read?
Its value is -4.46 kcal/mol.

And the “solvation free energy, 298 K” value (in CCN(CC)C(C)=O)?
The value was -4.2 kcal/mol.

And the “solvation free energy, 298 K” value (in CCNC(C)=O)?
The value was -3.83 kcal/mol.

And the “solvation free energy, 298 K” value (in CCNC=O)?
The value was -3.92 kcal/mol.

And the “solvation free energy, 298 K” value (in CN1CCCC1=O)?
The value was -4.16 kcal/mol.

What about the “solvation free energy, 298 K” value (in O) of the same compound?
The value was -2.67 kcal/mol.

What about the “solvation free energy, 298 K” value (in O=CN1CCOCC1) of the same compound?
Its value is -3.98 kcal/mol.

For `CCCOC(=O)c1ccc(O)cc1`, which “solvation free energy, 298 K” value (in O) is on record?
The value was -9.37 kcal/mol.

For `CBr`, which “solvation free energy, 298 K” value (in O) is on record?
The value was -0.82 kcal/mol.

For `O=C(O)CCCCc1ccccc1`, which “solvation free energy, 298 K” value (in O) is on record?
Its value is -8.68 kcal/mol.

Which “solvation free energy, 298 K” value (in CC=O) does the source give for `CC1CO1` (centres undefined) here?
Its value is -3.7 kcal/mol.

Which results are given for `CC(F)F`?
solvation free energy, 298 K (in CC(C)(C)O): -1.42 kcal/mol; solvation free energy, 298 K (in CC(C)CCO): -1.3 kcal/mol; solvation free energy, 298 K (in CC(C)CO): -1.35 kcal/mol; solvation free energy, 298 K (in CC(C)O): -1.5 kcal/mol; solvation free energy, 298 K (in CCC(C)(C)O): -1.36 kcal/mol; solvation free energy, 298 K (in CCC(C)CO): -1.23 kcal/mol; solvation free energy, 298 K (in CCC(C)O): -1.32 kcal/mol; solvation free energy, 298 K (in CCC(O)CC): -1.24 kcal/mol; solvation free energy, 298 K (in CCCC(C)O): -1.21 kcal/mol; solvation free energy, 298 K (in CCCCCCCC(=O)OCC(COC(=O)CCCCCCC)OC(=O)CCCCCCC): -1.37 kcal/mol; solvation free energy, 298 K (in CCCCCCCCC): -1.08 kcal/mol; solvation free energy, 298 K (in CCCCCCCCO): -1.07 kcal/mol; solvation free energy, 298 K (in CCCCCO): -1.28 kcal/mol; solvation free energy, 298 K (in CCCCO): -1.36 kcal/mol; solvation free energy, 298 K (in CCCO): -1.49 kcal/mol; solvation free energy, 298 K (in CN1CCCC1=O): -2.02 kcal/mol; solvation free energy, 298 K (in CN(C)C=O): -2.11 kcal/mol; solvation free energy, 298 K (in CO): -1.91 kcal/mol; solvation free energy, 298 K (in Cc1ccc(C)cc1): -1.62 kcal/mol; solvation free energy, 298 K (in Cc1cccc(C)c1): -1.63 kcal/mol; solvation free energy, 298 K (in Cc1ccccc1C): -1.62 kcal/mol; solvation free energy, 298 K (in O): -0.12 kcal/mol

With `CCCCCC(=O)O` as the compound, how does the “solvation free energy, 298 K” value (in O) read?
Its value is -6.11 kcal/mol.

Which results are given for `CC(=O)C(C)C`?
solvation free energy, 298 K (in CCCCCCCCCCCCCCCC): -3.52 kcal/mol; solvation free energy, 298 K (in CCCCCCCCO): -4.15 kcal/mol; solvation free energy, 298 K (in O): -3.24 kcal/mol; solvation free energy, 298 K (in [2H]O[2H]): -3.22 kcal/mol

For `CC(C)CC(=O)O`, which “solvation free energy, 298 K” value (in O) is on record?
Its value is -6.09 kcal/mol.

With `O=c1[nH]cc(F)c(=O)[nH]1` as the compound, how does the “solvation free energy, 298 K” value (in O) read?
The value was -16.9 kcal/mol.

For `C=C(C)C(=O)OC`, which “solvation free energy, 298 K” value (in O) is on record?
The value was -2.53 kcal/mol.

What does the source list for `CCOC(=O)OCC`?
solvation free energy, 298 K (in COC(C)(C)C): -5.35 kcal/mol; solvation free energy, 298 K (in ClC(Cl)(Cl)Cl): -5.78 kcal/mol; solvation free energy, 298 K (in O): -3.28 kcal/mol

Which “solvation free energy, 298 K” value (in O) does the source give for `CC(=O)OC(C)OC(C)=O` here?
Its value is -4.97 kcal/mol.

What does the source list for `CC(Cl)(Cl)Cl`?
solvation free energy, 298 K (in C1CCOC1): -4.35 kcal/mol; solvation free energy, 298 K (in CC(=O)CC(C)C): -4.28 kcal/mol; solvation free energy, 298 K (in CC(C)=O): -4.23 kcal/mol; solvation free energy, 298 K (in CC(C)O): -3.56 kcal/mol; solvation free energy, 298 K (in CCCCCCCCCCCCCC): -3.61 kcal/mol; solvation free energy, 298 K (in CCCCCCCCCCCCCCCC): -3.67 kcal/mol; solvation free energy, 298 K (in CCCCCCCCN(CCCCCCCC)CCCCCCCC): -3.63 kcal/mol; solvation free energy, 298 K (in CCCCCCCCO): -3.67 kcal/mol; solvation free energy, 298 K (in CCCCCN(CCCCC)CCCCC): -3.78 kcal/mol; solvation free energy, 298 K (in CCCCCl): -4.32 kcal/mol; solvation free energy, 298 K (in CCCCN(CCCC)CCCC): -3.69 kcal/mol; solvation free energy, 298 K (in CCCCOCCCC): -4.08 kcal/mol; solvation free energy, 298 K (in CCCO): -3.94 kcal/mol; solvation free energy, 298 K (in CCOCC): -4.13 kcal/mol; solvation free energy, 298 K (in ClC(Cl)(Cl)Cl): -4.24 kcal/mol; solvation free energy, 298 K (in ClC(Cl)Cl): -4.42 kcal/mol; solvation free energy, 298 K (in ClCCCl): -4.24 kcal/mol; solvation free energy, 298 K (in [2H]O[2H]): -0.57 kcal/mol

For `CCCc1ccc(O)cc1`, which “solvation free energy, 298 K” value (in O) is on record?
The value was -5.21 kcal/mol.

For `CCCCO[N+](=O)[O-]`, which “solvation free energy, 298 K” value (in O) is on record?
The value was -2.09 kcal/mol.

For `CC(=O)OCC(C)C`, which “solvation free energy, 298 K” value (in CCCCCCCCCCCCCCCC) is on record?
The value was -4.32 kcal/mol.

What about the “solvation free energy, 298 K” value (in CCCCCCCCO) of the same compound?
The value was -4.71 kcal/mol.

What about the “solvation free energy, 298 K” value (in O) of the same compound?
The value was -2.41 kcal/mol.

What about the “solvation free energy, 298 K” value (in [2H]O[2H]) of the same compound?
The value was -2.47 kcal/mol.

With `Cc1cc(Cl)c(Cl)cc1Cl` as the compound, how does the “solvation free energy, 298 K” value (in CCCCCCCCC=CCCCCCCCC(=O)OCC(COC(=O)CCCCCCCC=CCCCCCCCC)OC(=O)CCCCCCCC=CCCCCCCCC) read?
The value was -7.99 kcal/mol.

What about the “solvation free energy, 298 K” value (in O) of the same compound?
The value was -1.05 kcal/mol.
